From PubChem BioAssay (NCI) come the findings set out here.

Structures are written as SMILES.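 Cultured in 96-well plates, cells were exposed to test compound for 48 hours across five concentrations. TGI marks complete inhibition of growth.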 Where only a bound is given, the exact number is not on record here.

Common to all, as to experiment: growth of human tumour cells (NCI), 48 h
In assay [1] the test system is ACHN renal.
The test system of assay [2] is CAKI-1 renal.
Assay [3] deals with HCT-116 colon.
Assay [4] relates to HOP-92 NSCLC.
Assay [5] deals with HS 578T breast.
For assay [6], the system named is IGROV1 ovarian.
The subject of assay [7] is MALME-3M melanoma.
The test system of assay [8] is MDA-MB-231 breast.
In assay [9] the test system is NCI-H226 lung.
The test system of assay [10] is NCI-H460 lung.
The test system of assay [11] is NCI-H522 lung.
Assay [12] concerns OVCAR-3 ovarian.
Assay [13] concerns SF-268 CNS.
Assay [14] has as its system SF-539 CNS.
Assay [15] concerns SK-MEL-28 melanoma.
Assay [16] deals with SW-620 colon.
Assay [17] relates to TK-10 renal.
Assay [18] has as its system U251 CNS.
Assay [19] concerns T-47D breast.

Consider `CCN(CC)c1c(C(C)(C)C)c(=O)n2ccsc2c1OC(C)=O`, for which the TGI in assay [1] amounted to 29.7 µM; in [2] it was 33.1 µM; in [3], 26.5 µM; in [4] it was 31.2 µM; in assay [5], 42.8 µM; in assay [6], 31.2 µM. The TGI in assay [7] turned out to be 25.8 µM; in assay [8], 32.5 µM; in assay [9] it was 29.2 µM; in [10], 31.3 µM; in [11] it was 27.7 µM; in assay [12] it was 30.8 µM. Also, the TGI in [13] amounted to 30.1 µM; in assay [14], 33.3 µM; in assay [15] it was 30.8 µM; in assay [16], 30.6 µM; in assay [17], 34.7 µM; in [18] it was 30.8 µM.
With `CNC(=O)OCc1cnc([N+](=O)[O-])n1C`, the TGI in assay [1], in assay [2], in [3], in assay [4], in assay [5] and in assay [6] was over 100 µM throughout. The TGI in assay [7], in assay [8], in [9], in assay [10], in [11] and in assay [12] was over 100 µM throughout. Further, the TGI in assay [13], in [14], in assay [15], in [16], in [17] and in assay [18] was over 100 µM throughout.
On to `CCOP1(=O)CC(C)=C(Cl)C(OC)C1` (configuration not stated), for which the TGI in assay [1], in [2], in assay [3], in [4], in [5] and in assay [6] was over 100 µM in each case. Further, the TGI in [7], in assay [8], in [9], in [10], in [11] and in assay [12] was over 100 µM in each case. Further, the TGI in assay [13], in assay [14], in [15], in assay [16], in [17] and in [18] was over 100 µM in each case.
Take `COc1cc2c(c(OC)c1OC)C(=O)c1c(O)cc(C)c(OC)c1C2=O`: the TGI is over 100 µM in assay [1]; over 100 µM in assay [2]; over 100 µM in assay [3]; over 100 µM in assay [4]; 70.1 µM in assay [5]; over 100 µM in assay [6]. Also, the TGI in assay [7], in assay [8], in assay [9], in assay [10], in assay [11] and in assay [12] was over 100 µM each time. Further, the TGI in assay [13], in assay [14], in [15], in assay [16], in [17] and in [18] was over 100 µM throughout.
For the compound `ClC1=NSSC1(Cl)Cl`, the TGI was 39.5 µM in assay [1]; 34.8 µM in assay [2]; over 100 µM in [3]; over 100 µM in assay [6]; over 100 µM in assay [7]; 71.2 µM in assay [8]. In addition, the TGI in assay [9] is over 100 µM; in assay [10], over 100 µM; in assay [11], 38.8 µM; in [12] it was 64.5 µM; in assay [14] it was over 100 µM; in assay [16] it was 82.3 µM. The same compound registered a TGI in assay [18] of over 100 µM.
In the case of `CC(=O)N[C@@H](Cc1ccc(O)cn1)C(=O)NCc1ccc(Cl)cc1`, the TGI in assay [1], in assay [2], in assay [3], in assay [4], in assay [6] and in assay [7] was over 100 µM each time. For the same compound, the TGI in assay [9], in assay [10], in assay [11], in [12], in assay [14] and in assay [15] was over 100 µM throughout. Further, the TGI in assay [16], in [19], in [17] and in [18] was over 100 µM throughout.
Regarding `CN(C)C(=O)C(F)(F)C(c1ccccc1)C1C(=O)N(C)C(=O)N(C)C1=O` (configuration not stated), the TGI in assay [1], in assay [2], in [3], in assay [4], in assay [8] and in assay [9] was over 100 µM throughout. Besides, the TGI in [10], in [12], in assay [13], in assay [15], in [16] and in assay [19] was over 100 µM throughout. In addition, the TGI in [17] and in assay [18] was over 100 µM throughout.
As for `CC(C)(C)N/N=C(/Cc1nc2c3c(ccc2[nH]c1=O)C(=O)c1ccccc1C3=O)C(=O)NC1=C(Cl)C(=O)c2ccccc2C1=O`, the TGI in assay [1] is over 100 µM; in assay [2] it was over 100 µM; in assay [3], over 100 µM; in assay [4], over 100 µM; in [5], 79.8 µM; in [6], over 100 µM. For the same compound, the TGI is 37.8 µM in assay [7]; 88.8 µM in [9]; 31.3 µM in assay [10]; over 100 µM in [11]; over 100 µM in [12]; 43.5 µM in assay [13]. Moreover, the TGI in assay [14], in [15], in assay [16], in [19] and in assay [18] was over 100 µM in each case.
